Target: T1, mutant G12C K-RAS (Homo sapiens, UniProt P01116, G12C)
T1 construct: made in house; host or cells: E. coli BL21
Assay: covalent adduct formation (CAF) with mutant G12C K-RAS
Type: binding
Parameters: CAF: unit not given here
Settings: Table 1, Pyrimidone Core-Morpholine Unsubstituted; after 60 minutes at 10 micromolar
Method: Embodiments disclosed herein are further illustrated by the following examples in Tables 1-4 and the Examples hereinbelow. The Tables indicate the compound number, structure, the observed mass spectral molecular weight peak, and covalent adduct formation (CAF) with a mutant G12C K-RAS after 60 minutes at a concentration of 10 micromolar.

% CAF (60 min) | SMILES
8.5% | C=C(F)C(=O)N1CCN(c2nc(=O)n3c4c(c(-c5c(O)cccc5F)c(Cl)cc24)OCC3)C[C@@H]1CC#N (atropisomer, axis not shown) [Example 10, 2-((2S)-4-(9-chloro-10-(2-fluoro-6-hydroxyphenyl)-5-oxo-3,5-dihydro-2H-[1,4]oxazino[2,3,4-ij]quinazolin-7-yl)-1-(2-fluoroacryloyl)piperazin-2-yl)acetonitrile]

Same assay, conditions: Table 2, Pyrimidone Core-Morpholine Substituted; after 60 minutes at 10 micromolar

% CAF (60 min) | SMILES
68.1% | C=CC(=O)N1C[C@H](C)N(c2nc(=O)n3c4c(c(-c5c(O)cccc5F)c(Cl)cc24)OC[C@H]3CO)C[C@H]1C [Example 30]

Same assay, conditions: Table 3, Pyridone Core-Morpholine Unsubstituted; after 60 minutes at 10 micromolar

CAF | SMILES
75.5 | C=CC(=O)N1CCN(c2c(C#N)c(=O)n3c4c(c(-c5c(O)cccc5F)c(Cl)cc24)OCC3)[C@@H](C)C1 [Example 40, (R)-7-((S)-4-acryloyl-2-methylpiperazin-1-yl)-9-chloro-10-(2-fluoro-6-hydroxyphenyl)-5-oxo-3,5-dihydro-2H-[1,4]oxazino[2,3,4-ij]quinoline-6-carbonitrile]

Same assay, conditions: Table 6; 10 μM, 1 h

% CAF @ 10 μM,1 h | SMILES
97.8% | C=CC(=O)N1C[C@H](C)N(c2nc(=O)n3c4c(c(-c5c(O)cccc5F)c(Cl)cc24)OC[C@@H]3CCCN2CCOCC2)C[C@H]1C (atropisomer, axis not shown) [Example 226, (3S,10S)-7-((2S,5R)-4-acryloyl-2,5-dimethylpiperazin-1-yl)-9-chloro-10-(2-fluoro-6-hydroxyphenyl)-3-(3-morpholinopropyl)-2,3-dihydro-5H-[1,4]oxazino[2,3,4-ij]quinazolin-5-one]
4.4% | C=CC(=O)N1C[C@H](C)N(c2nc(=O)n3c4c(c(-c5c(O)cccc5F)c(Cl)cc24)OC[C@@H]3Cn2cccn2)C[C@H]1C (atropisomer, axis not shown) [Example 244, (3S,10R)-3-((1H-pyrazol-1-yl)methyl)-7-((2S,5R)-4-acryloyl-2,5-dimethylpiperazin-1-yl)-9-chloro-10-(2-fluoro-6-hydroxyphenyl)-2H-[1,4]oxazino[2,3,4-ij]quinazolin-5(3H)-one]
79% | C=CC(=O)N1C[C@H](C)N(c2nc(=O)n3c4c(c(-c5ccc(F)cc5F)c(Cl)cc24)OC[C@@H]3COC2CCN(C)C2)C[C@H]1C (stereo in doubt) [Example 336, (3S)-7-((2S,5R)-4-acryloyl-2,5-dimethylpiperazin-1-yl)-9-chloro-10-(2,4-difluorophenyl)-3-((((S)-1-methylpyrrolidin-3-yl)oxy)methyl)-2H-[1,4]oxazino[2,3,4-ij]quinazolin-5(3H)-one]
0% | C=CC(=O)N1C[C@H](C)N(c2nc(=O)n3c4c(c(-c5c(O)cccc5F)c(Cl)cc24)OC[C@H]3CN2CCN(C)CC2)C[C@H]1C (atropisomer, axis not shown) [Example 300, (3R,10R)-7-((2S,5R)-4-acryloyl-2,5-dimethylpiperazin-1-yl)-9-chloro-10-(2-fluoro-6-hydroxyphenyl)-3-((4-methylpiperazin-1-yl)methyl)-2,3-dihydro-5H-[1,4]oxazino[2,3,4-ij]quinazolin-5-one]
60.9% | C=CC(=O)N1C[C@H](C)N(c2nc(=O)n3c4c(c(-c5ccc(F)cc5F)c(Cl)cc24)OC[C@@H]3Cn2cccn2)C[C@H]1C [Example 236, (3S)-3-((1H-pyrazol-1-yl)methyl)-7-((2S,5R)-4-acryloyl-2,5-dimethylpiperazin-1-yl)-9-chloro-10-(2,4-difluorophenyl)-2H-[1,4]oxazino[2,3,4-ij]quinazolin-5(3H)-one]
100% | C=CC(=O)N1CCN(c2nc(=O)n3c4c(c(-c5c(O)cccc5F)c(Cl)cc24)OC[C@H]3CN2CCOCC2)[C@@H](C)C1 [Example 198, (3R,10S)-7-((S)-4-acryloyl-2-methylpiperazin-1-yl)-9-chloro-10-(2-fluoro-6-hydroxyphenyl)-3-(morpholinomethyl)-2,3-dihydro-5H-[1,4]oxazino[2,3,4-ij]quinazolin-5-one]
73.5% | C=CC(=O)N1C[C@H](C)N(c2nc(=O)n3c4c(c(-c5ccc(F)cc5F)c(Cl)cc24)OC[C@@H]3COC2CCN(C)CC2)C[C@H]1C [Example 276, (3S)-7-((2S,5R)-4-acryloyl-2,5-dimethylpiperazin-1-yl)-9-chloro-10-(2,4-difluorophenyl)-3-(((1-methylpiperidin-4-yl)oxy)methyl)-2H-[1,4]oxazino[2,3,4-ij]quinazolin-5(3H)-one]
2.5% | C=CC(=O)N1C[C@H](C)N(c2nc(=O)n3c4c(c(-c5c(C)ccc6cnn(C)c56)ccc24)OCC3)C[C@H]1C [Example 194, 7-((2S,5R)-4-acryloyl-2,5-dimethylpiperazin-1-yl)-10-(1,6-dimethyl-1H-indazol-7-yl)-2,3-dihydro-5H-[1,4]oxazino[2,3,4-ij]quinazolin-5-one]
96.4% | C=CC(=O)N1C[C@H](C)N(c2nc(=O)n3c4c(c(-c5ccc(F)cc5F)c(Cl)cc24)OC[C@H]3CCCN2C[C@@H]3C[C@H]2CO3)C[C@H]1C [Example 270, (3R)-3-(3-((1S,4S)-2-oxa-5-azabicyclo[2.2.1]heptan-5-yl)propyl)-7-((2S,5R)-4-acryloyl-2,5-dimethylpiperazin-1-yl)-9-chloro-10-(2,4-difluorophenyl)-2H-[1,4]oxazino[2,3,4-ij]quinazolin-5(3H)-one]
85.6% | C=CC(=O)N1C[C@H](C)N(c2nc(=O)n3c4c(c(-c5ccc(F)cc5F)c(Cl)cc24)OCC3CN2CCC(F)(F)C2)C[C@H]1C (stereo in doubt) [Example 207, (3R)-7-((2S,5R)-4-acryloyl-2,5-dimethylpiperazin-1-yl)-9-chloro-10-(2,4-difluorophenyl)-3-((3,3-difluoropyrrolidin-1-yl)methyl)-2H-[1,4]oxazino[2,3,4-ij]quinazolin-5(3H)-one]
68% | C=CC(=O)N1C[C@H](C)N(c2nc(=O)n3c4c(c(-c5ccc(F)cc5F)c(Cl)cc24)OC[C@H]3CN2CCS(=O)(=O)CC2)C[C@H]1C [Example 268, (3R)-7-((2S,5R)-4-acryloyl-2,5-dimethylpiperazin-1-yl)-9-chloro-10-(2,4-difluorophenyl)-3-((1,1-dioxidothiomorpholino)methyl)-2H-[1,4]oxazino[2,3,4-ij]quinazolin-5(3H)-one]
82.4% | C=CC(=O)N1C[C@H](C)N(c2nc(=O)n3c4c(c(-c5ccc(F)cc5F)c(Cl)cc24)OC[C@@H]3CN2CCC2)C[C@H]1C [Example 232, (3S)-7-((2S,5R)-4-acryloyl-2,5-dimethylpiperazin-1-yl)-3-(azetidin-1-ylmethyl)-9-chloro-10-(2,4-difluorophenyl)-2H-[1,4]oxazino[2,3,4-ij]quinazolin-5(3H)-one]
34.2% | C=CC(=O)N1C[C@H](C)N(c2nc(=O)n3c4c(c(-c5ccc(F)cc5F)c(Cl)cc24)OC[C@@H]3CN2CCC(F)(F)C2)C[C@H]1C (stereo in doubt) [Example 202]
77.4% | C=CC(=O)N1C[C@H](C)N(c2nc(=O)n3c4c(c(-c5cc(Cl)ccc5F)c(Cl)cc24)OC[C@@H]3CN2CCOCC2)C[C@H]1C [Example 211, (3S)-7-((2S,5R)-4-acryloyl-2,5-dimethylpiperazin-1-yl)-9-chloro-10-(5-chloro-2-fluorophenyl)-3-(morpholinomethyl)-2,3-dihydro-5H-[1,4]oxazino[2,3,4-ij]quinazolin-5-one]
75.2% | C=CC(=O)N1C[C@H](C)N(c2nc(=O)n3c4c(c(-c5cccc6ccccc56)c(Cl)cc24)OC[C@H]3CN2CCN(C)CC2)C[C@H]1C (atropisomer, axis not shown) [Example 294, (3R,10R)-7-((2S,5R)-4-acryloyl-2,5-dimethylpiperazin-1-yl)-9-chloro-3-((4-methylpiperazin-1-yl)methyl)-10-(naphthalen-1-yl)-2H-[1,4]oxazino[2,3,4-ij]quinazolin-5(3H)-one]
86.8% | C=CC(=O)N1C[C@H](C)N(c2nc(=O)n3c4c(c(-c5ccc(F)cc5F)c(Cl)cc24)OC[C@@H]3CCCN2CCS(=O)(=O)CC2)C[C@H]1C [Example 255, (3S)-7-((2S,5R)-4-acryloyl-2,5-dimethylpiperazin-1-yl)-9-chloro-10-(2,4-difluorophenyl)-3-(3-(1,1-dioxidothiomorpholino)propyl)-2,3-dihydro-5H-[1,4]oxazino[2,3,4-ij]quinazolin-5-one]
74.8% | C=CC(=O)N1C[C@H](C)N(c2nc(=O)n3c4c(c(-c5c(O)cccc5F)c(Cl)cc24)OC[C@@H]3CN2CCN(C)CC2)C[C@H]1C (atropisomer, axis not shown) [Example 314, (3S,10S)-7-((2S,5R)-4-acryloyl-2,5-dimethylpiperazin-1-yl)-9-chloro-10-(2-fluoro-6-hydroxyphenyl)-3-((4-methylpiperazin-1-yl)methyl)-2,3-dihydro-5H-[1,4]oxazino[2,3,4-ij]quinazolin-5-one]
